# According to paper PMC12546632, “The role of cytochrome bc1 inhibitors in future tuberculosis treatment regimens” (Nature Communications, 2025):
# Values joined by “and” are separate entries in the source; they are usually repeats but may differ in a detail not shown here. Equal entries are not always repeated.
# Tested on: JNJ-2901- and JNJ-4052-resistant M. tuberculosis ΔcydAB strains (QcrA/QcrB mutants)
# Assay type: cell-based, Mycobacterium tuberculosis
compound,measurement,value
"NNC(=O)c1ccncc1 [Isoniazid, isoniazid]",MIC50 fold change from parental strain,1 fold and 0.5 fold
